Laboratory results reported in patent US10253035B2 (priority 2016, dated 2019).
“Also recorded” adds a separate entry of the source. Where two headings read alike, the source gives them in different places.

How the values were obtained:
[1] = molecular target: T1, Eis_Mtb (Mycobacterium tuberculosis, UniProt P9WFK7); assay type: biochemical
[2] = molecular target: T1, Eis_Mtb; assay: biochemical; assay type: biochemical
[3] = system: Mtb H37Rv; assay type: cell-based
[4] = molecular target: AAC(2′)-Ic (Mycobacterium tuberculosis, UniProt P9WQG9); assay: biochemical; set-up: species or system Mtb
[5] = molecular target: AAC(6′)-Ie/APH(2″)-Ia (Staphylococcus aureus, UniProt P0A0C1); assay: Selectivity: KAN acetylation by AAC(6′)-Ie/APH(2″)-Ia; assay type: biochemical
[6] = system: AAC(3)-IV; assay: Selectivity: KAN acetylation by AAC(3)-IV; assay type: biochemical, E. coli; conditions: for inhibition of KAN acetylation by AAC(3)-IV (in words): concentrations as high as 200 μM
[7] = system: A549, HEK-293, and J774A.1 cells; conditions: KAN alone at sub-IC50 concentrations (FIG. 9)
[8] = activity of KAN against Mtb H37Rv with compound at concentration tested (100x IC50 or 100 μM), Example 1, two experiments
[9] = KAN MIC for H37Rv Mtb in the presence of compound at the specified concentration, Example 4
[10] = concentrations as high as 200 μM

AAC(2′)-Ic, sequence (P9WQG9 whole entry): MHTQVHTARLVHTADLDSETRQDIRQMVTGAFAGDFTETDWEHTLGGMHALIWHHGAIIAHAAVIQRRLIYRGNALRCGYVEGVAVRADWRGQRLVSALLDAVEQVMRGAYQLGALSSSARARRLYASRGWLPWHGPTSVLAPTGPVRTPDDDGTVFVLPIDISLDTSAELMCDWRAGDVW
T1 sequence (P9WFK7 2-402 limits assumed): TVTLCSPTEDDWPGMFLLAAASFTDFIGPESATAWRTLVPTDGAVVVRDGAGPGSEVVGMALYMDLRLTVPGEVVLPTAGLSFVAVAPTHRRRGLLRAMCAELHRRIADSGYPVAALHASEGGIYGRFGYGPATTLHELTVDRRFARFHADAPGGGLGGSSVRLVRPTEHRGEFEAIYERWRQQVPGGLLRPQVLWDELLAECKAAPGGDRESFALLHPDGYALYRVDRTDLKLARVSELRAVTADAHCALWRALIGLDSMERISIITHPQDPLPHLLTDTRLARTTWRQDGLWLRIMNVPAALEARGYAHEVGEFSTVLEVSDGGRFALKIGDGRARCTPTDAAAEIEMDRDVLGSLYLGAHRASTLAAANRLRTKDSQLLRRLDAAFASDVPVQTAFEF
AAC(6′)-Ie/APH(2″)-Ia, sequence (P0A0C1 whole entry): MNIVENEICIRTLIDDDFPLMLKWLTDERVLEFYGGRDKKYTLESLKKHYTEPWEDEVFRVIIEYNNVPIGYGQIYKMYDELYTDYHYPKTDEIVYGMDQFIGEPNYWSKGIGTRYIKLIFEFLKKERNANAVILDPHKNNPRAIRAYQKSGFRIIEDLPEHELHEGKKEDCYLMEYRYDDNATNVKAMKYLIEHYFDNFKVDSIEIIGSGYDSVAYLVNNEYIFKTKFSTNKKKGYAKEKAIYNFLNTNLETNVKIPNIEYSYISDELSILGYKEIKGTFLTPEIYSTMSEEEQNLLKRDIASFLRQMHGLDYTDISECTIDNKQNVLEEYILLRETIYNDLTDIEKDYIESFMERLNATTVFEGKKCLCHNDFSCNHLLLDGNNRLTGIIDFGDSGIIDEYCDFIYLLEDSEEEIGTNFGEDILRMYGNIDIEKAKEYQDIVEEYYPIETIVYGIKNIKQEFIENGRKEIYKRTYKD

## Cc1cc(NS(=O)(=O)c2ccc3[nH]c(=O)c(=O)[nH]c3c2)ccc1Br [Compound 1]
[1]
  Eis inhibition in the HTS (in words): modest Eis inhibition; also recorded: did not display significant Eis inhibition

## CCC(=O)Cn1c(C(=O)OC)cc2occc21 [Compound 1l]
[2]
  IC50: > 200000 nM

## COC(=O)c1cc2occc2n1CC(=O)C(C)(C)C [Compound 1m]
[2]; read-out: IC50
  IC50: > 200000 nM
[3]; [8]
  H37Rv MICKAN: ≤1.25 µg/mL

## CCC(=O)CN1C(=O)C2(OCCO2)c2ccccc21 [Compound 2l]
[2]; read-out: IC50
  IC50: > 200000 nM
[3]; [8]
  H37Rv MICKAN: ≤1.25 µg/mL

## O=C(CN1C(=O)C2(OCCO2)c2ccccc21)c1cccc([N+](=O)[O-])c1 [Compound 2n]
[2]; read-out: IC50
  IC50: 1200 ± 400 nM

## O=c1[nH]c2ccc(S(=O)(=O)Nc3ccc(Cl)c(C(F)(F)F)c3)cc2[nH]c1=O [Compound 3]
[1]
  Eis inhibition in the HTS (in words): modest Eis inhibition

## O=C(C[N+]1=C(c2ccc(F)c(F)c2)c2cccn2CC1)c1cccc(Cl)c1 [Compound 3d]
[2]; read-out: IC50
  IC50: 43 ± 6 nM

## O=C(C[N+]1=C(c2ccc(F)c(F)c2)c2cccn2CC1)c1ccc(F)cc1 [Compound 3h]
[2]; read-out: IC50
  IC50: 110 ± 30 nM

## CCN(CC)CCCNC1=NS(=O)(=O)C(c2ccc(C)c(C)c2)=C1C [Compound 3i]
[3]; [9]
  H37Rv MICKAN: 0.625 µg/mL

## Cc1ccc(C(=O)C[N+]2=C(c3ccc(F)c(F)c3)c3cccn3CC2)cc1 [Compound 3k]
[2]; read-out: IC50
  IC50: 110 ± 30 nM

## CC1=C(c2ccc(F)cc2)S(=O)(=O)N=C1NCCCN1CCCCC1 [Compound 6b]
[3]; [9]
  H37Rv MICKAN: 0.625 µg/mL

## CC1=C(c2ccc(F)cc2)S(=O)(=O)N=C1NCCCN1CCCCC1C (centres unmarked) [Compound 7b]
[3]; [9]
  H37Rv MICKAN: 0.625 µg/mL

## CN1C(=O)C2(OCCO2)c2ccccc21 [Compound 8b]
[1]
  Eis inhibition in the HTS (in words): no Eis_Mtb inhibitory activity

## CC1=C(c2ccc(Cl)cc2)S(=O)(=O)N=C1NCCCN1CCc2ccccc2C1 [Compound 11c]
[3]; [9]
  H37Rv MICKAN: 0.625 µg/mL

## CC1=C(c2ccccc2)S(=O)(=O)N=C1NCCCN1CCOCC1 [Compound 13a]
[3]; [9]
  H37Rv MICKAN: 0.625 µg/mL

## CC1=C(c2ccc(C)cc2)S(=O)(=O)N=C1NCCCN1CCOCC1 [Compound 13e]
[3]; [9]
  H37Rv MICKAN: 0.625 µg/mL

## CC1=C(c2cccc(Cl)c2)S(=O)(=O)N=C1NCCCN1CCOCC1 [Compound 13g]
[3]; [9]
  H37Rv MICKAN: 0.625 µg/mL

## CC1=C(c2ccc(C)c(C)c2)S(=O)(=O)N=C1NCCCN1CCOCC1 [Compound 13i]
[3]; [9]
  H37Rv MICKAN: 0.625 µg/mL

## COc1ccc(N(C)S(=O)(=O)c2ccc3[nH]c(=O)c(=O)[nH]c3c2)cc1 [Compound 14]
[1]
  Eis inhibition in the HTS (in words): inactive

## CC1=C(c2ccc(Cl)cc2)S(=O)(=O)N=C1NCCCN1CCN(C)CC1 [Compound 14c]
[3]; [9]
  H37Rv MICKAN: 0.625 µg/mL

## Cc1ccc(N(C)S(=O)(=O)c2ccc3[nH]c(=O)c(=O)[nH]c3c2)cc1 [Compound 15]
[1]
  Eis inhibition in the HTS (in words): inactive

## CCN1CCN(CCCNC2=NS(=O)(=O)C(c3ccc(C)cc3)=C2C)CC1 [Compound 15e]
[3]; [9]
  H37Rv MICKAN: 0.625 to 1.25 µg/mL

## CCN1CCN(CCCNC2=NS(=O)(=O)C(c3ccc(C(C)C)cc3)=C2C)CC1 [Compound 15f]
[3]; [9]
  H37Rv MICKAN: 0.625 to 1.25 µg/mL

## CC1=C(c2ccc(C)c(C)c2)S(=O)(=O)N=C1NCCCN1CCN(C2CCCCC2)CC1 [Compound 17i]
[3]; [9]
  H37Rv MICKAN: 0.625 to 1.25 µg/mL

## CN(c1ccc(Br)cc1)S(=O)(=O)c1ccc2[nH]c(=O)c(=O)[nH]c2c1 [Compound 29]
[1]; single-point HTS of library compounds
  Eis inhibition in the HTS (in words): potently inhibited Eis activity

## CC1=C(c2ccccc2)S(=O)(=O)N=C1NCCN1CCCCC1 [Compound 33a]
[3]; [9]
  H37Rv MICKAN: 0.625 µg/mL

## CC1=C(c2ccc(C)cc2)S(=O)(=O)N=C1NCCN1CCOCC1 [Compound 35e]
[3]; [9]
  H37Rv MICKAN: 0.625 µg/mL

## CC1=C(c2cccc(Cl)c2)S(=O)(=O)N=C1NCCN1CCOCC1 [Compound 35g]
[3]; [9]
  H37Rv MICKAN: 0.625 µg/mL

## CC1=C(c2cccc(Br)c2)S(=O)(=O)N=C1NCCN1CCOCC1 [Compound 35h]
[3]; [9]
  H37Rv MICKAN: 0.625 µg/mL

## CC1=C(c2ccc(C)c(C)c2)S(=O)(=O)N=C1NCCN1CCOCC1 [Compound 35i]
[3]; [9]
  H37Rv MICKAN: 0.625 µg/mL

## COc1ccc(C2=C(C)C(NCCN3CCN(C)CC3)=NS2(=O)=O)cc1 [Compound 36d]
[3]; [9]
  H37Rv MICKAN: 0.625 µg/mL

## CCN1CCN(CCNC2=NS(=O)(=O)C(c3ccc(F)cc3)=C2C)CC1 [Compound 37b]
[3]; [9]
  H37Rv MICKAN: 0.625 µg/mL

## CCN1CCN(CCNC2=NS(=O)(=O)C(c3ccc(OC)cc3)=C2C)CC1 [Compound 37d]
[3]; [9]
  H37Rv MICKAN: 0.625 to 1.25 µg/mL

## COc1cccc(N(C)S(=O)(=O)c2ccc3[nH]c(=O)c(=O)[nH]c3c2)c1 [Compound 39]
[4]; read-out: inhibition of the AAC(2′)-Ic activity
  inhibition at 200 µM: 15%
[5]
  inhibition of KAN acetylation by AAC(6′)-Ie/APH(2″)-Ia (in words): did not inhibit KAN acetylation
[6]
  inhibition of KAN acetylation by AAC(3)-IV (in words): did not inhibit KAN acetylation

## CN(c1ccc2ccccc2c1)S(=O)(=O)c1ccc2[nH]c(=O)c(=O)[nH]c2c1 [Compound 46]
[4]; [10]
  inhibition of KAN acetylation by AAC(2′)-Ic (in words): did not inhibit KAN acetylation
[5]; [10]
  inhibition of KAN acetylation by AAC(6′)-Ie/APH(2″)-Ia (in words): did not inhibit KAN acetylation
[6]
  inhibition of KAN acetylation by AAC(3)-IV (in words): did not inhibit KAN acetylation

## CC1=C(c2ccc(F)cc2)S(=O)(=O)N=C1N1CCC(N2CCCCC2)CC1 [Compound 46b]
[2]; read-out: IC50
  IC50: 92 ± 21 nM
[4]
  inhibition of KAN acetylation by AAC(2′)-Ic (in words): no inhibition by either compound was observed
[4]; 200 µM
  % activity: 100%
[5]; acetylation activity of AAC(6′)-Ie/APH(2″)-Ia at 200 μM inhibitor relative to that without inhibitor
  % activity: 80%
[5]; [10]
  inhibition of KAN acetylation by AAC(6′)-Ie/APH(2″)-Ia (in words): no inhibition by either compound was observed
[6]; AAC(3)-IV activity at 200 μM inhibitor relative to that without inhibitor
  % activity: 100%
[6]
  inhibition of KAN acetylation by AAC(3)-IV (in words): no inhibition by either compound was observed
[3]; [9]
  H37Rv MICKAN: 0.625 to 1.25 µg/mL

## COc1cc(N(C)S(=O)(=O)c2ccc3[nH]c(=O)c(=O)[nH]c3c2)cc2ccccc12 [Compound 47]
[2]; dose-response assay
  inhibition of purified Eis (in words): loss of Eis inhibition

## CCCN1CCN(C2=NS(=O)(=O)C(c3ccc(C)c(C)c3)=C2C)CC1 [Compound 62i]
[3]; [9]
  H37Rv MICKAN: 0.625 µg/mL

## CC1=C(c2ccc(F)cc2)S(=O)(=O)N=C1NCc1ccccc1 [Compound 89b]
[3]; [9]
  H37Rv MICKAN: 1.25 µg/mL

## CC1=C(c2ccc(F)cc2)S(=O)(=O)N=C1NCc1ccccn1 [Compound 112b]
[3]; [9]
  H37Rv MICKAN: 0.625 µg/mL

## CC1=C(c2ccc(C)c(C)c2)S(=O)(=O)N=C1NCC(=O)NCc1ccc(C)o1 [Compound 116i]
[3]; [9]
  H37Rv MICKAN: 1.25 µg/mL

## NC[C@H]1O[C@H](O[C@H]2[C@H](O)[C@@H](O[C@H]3O[C@H](CO)[C@@H](O)[C@H](N)[C@H]3O)[C@H](N)C[C@@H]2N)[C@H](O)[C@@H](O)[C@@H]1O [KAN, kanamycin A]
[7]
  effect on cell growth (in words): promotes cell growth

## COC(=O)c1cc2occc2n1CC(=O)c1cccc(OC)c1 [if]
[2]
  IC50: > 200000 nM
